Results as given in ChEMBL document CHEMBL1146569, “The pterocellins, novel bioactive alkaloids from the marine bryozoan Pterocella vesiculosa” (J Nat Prod, 2003).

Tests used:
Assay type in all cases: functional
A498 = experiment: Growth inhibition of human A498 cells; conditions: for CC50: read-out: LC50 (the source's name)
RXF 393 = experiment: Growth inhibition of human RXF393 cells
HL-60(TB) = experiment: Growth inhibition of human HL-60(TB) cells; conditions: for CC50: read-out: LC50 (the source's name)
A549 = experiment: Growth inhibition of human A549 cells
NCI-H522 = experiment: Growth inhibition of human NCI-H522 cells; conditions: for CC50: read-out: LC50 (the source's name)
PC-3 = experiment: Growth inhibition of human PC3 cells
HCT-15 = experiment: Growth inhibition of human HCT15 cells; conditions: for CC50: read-out: LC50 (the source's name)
LOX IMVI = experiment: Growth inhibition of human LOXIMVI cells
UO-31 = experiment: Growth inhibition of human UO31 cells; conditions: for CC50: read-out: LC50 (the source's name)
MDA-MB-435 = experiment: Growth inhibition of human MDA-MB-435 cells; conditions: for CC50: read-out: LC50 (the source's name)
Pseudomonas aeruginosa = experiment: Antimicrobial activity against Pseudomonas aeruginosa assessed per disk
COLO 205 = experiment: Growth inhibition of human COLO205 cells; conditions: for CC50: read-out: LC50 (the source's name)
ACHN = experiment: Growth inhibition of human ACHN cells; conditions: for CC50: read-out: LC50 (the source's name)
Amorphotheca resinae = experiment: Antimicrobial activity against Cladosporium resinae assessed per disk
SN12C = experiment: Growth inhibition of human SN12C cells
SNB-75 = experiment: Growth inhibition of human SNB75 cells; conditions: for CC50: read-out: LC50 (the source's name)
SK-MEL-5 = experiment: Growth inhibition of human SK-MEL-5 cells; conditions: for CC50: read-out: LC50 (the source's name)
MDA-MB-231 = experiment: Growth inhibition of human MDA-MB-231 cells; conditions: for CC50: read-out: LC50 (the source's name)
MCF7 = experiment: Growth inhibition of human MCF7 cells; conditions: for CC50: read-out: LC50 (the source's name)
SW-620 = experiment: Growth inhibition of human SW620 cells
Candida albicans = experiment: Antimicrobial activity against Candida albicans assessed per disk
MDA-N = experiment: Growth inhibition of human MDA-N cells; conditions: for CC50: read-out: LC50 (the source's name)

COc1cn2c(cc1=O)C(=O)c1ccnc(CC(C)C)c1-2 [PTEROCELLIN A]
GI50 (A498): 0.9 µM | TGI (A498): 2.2 µM | CC50 (A498): 5.1 µM | GI50 (RXF 393): 3.2 µM | LC50 (RXF 393): 46.6 µM | TGI (RXF 393): 12.3 µM | GI50 (HL-60(TB)): 3 µM | TGI (HL-60(TB)): > 100 µM | CC50 (HL-60(TB)): > 100 µM | GI50 (A549): 1.3 µM | LC50 (50% cell kill concentration) (A549): > 100 µM | TGI (A549): 5.1 µM | GI50 (NCI-H522): 1.7 µM | TGI (NCI-H522): 3.3 µM | CC50 (NCI-H522): 6.5 µM | GI50 (PC-3): 2.9 µM | LC50 (concentration killing 50% of cells) (PC-3): 45.1 µM | TGI (PC-3): 8.4 µM | GI50 (HCT-15): 1.6 µM | TGI (HCT-15): 4.2 µM | CC50 (HCT-15): 17.3 µM | GI50 (LOX IMVI): 1.3 µM | LC50 (LOX IMVI): > 100 µM | TGI (LOX IMVI): 7.4 µM | GI50 (UO-31): 2.2 µM | TGI (UO-31): 6.1 µM | CC50 (UO-31): 22.2 µM | GI50 (MDA-MB-435): 0.2 µM | TGI (MDA-MB-435): 0.3 µM | CC50 (MDA-MB-435): 0.6 µM | MIC (Pseudomonas aeruginosa): >60 µg | GI50 (COLO 205): 1.6 µM | TGI (COLO 205): 3.7 µM | CC50 (COLO 205): 8.4 µM | GI50 (ACHN): 2.3 µM | TGI (ACHN): 9.1 µM | CC50 (ACHN): > 100 µM | MIC (Amorphotheca resinae): >60 µg | GI50 (SN12C): 1.7 µM | LC50 (SN12C): 6.5 µM | TGI (SN12C): 3.3 µM | GI50 (SNB-75): 1.4 µM | TGI (SNB-75): 3.9 µM | CC50 (SNB-75): 56.8 µM | GI50 (SK-MEL-5): 0.2 µM | TGI (SK-MEL-5): 0.3 µM | CC50 (SK-MEL-5): 0.6 µM | GI50 (MDA-MB-231): 2.6 µM | TGI (MDA-MB-231): 14.1 µM | CC50 (MDA-MB-231): 51.7 µM | GI50 (MCF7): 1.5 µM | TGI (MCF7): 4.9 µM | CC50 (MCF7): > 100 µM | GI50 (SW-620): 1.5 µM | LC50 (concentration killing 50% of cells) (SW-620): 6.2 µM | TGI (SW-620): 3.1 µM | MIC (Candida albicans): >60 µg | GI50 (MDA-N): 0.2 µM | TGI (MDA-N): 0.4 µM | CC50 (MDA-N): 0.6 µM

COc1cn2c(cc1=O)C(=O)c1ccnc(Cc3ccccc3)c1-2 [PTEROCELLIN B]
GI50 (A498): 1.9 µM | TGI (A498): 4 µM | CC50 (A498): 8.5 µM | GI50 (RXF 393): 2.4 µM | LC50 (RXF 393): 45.2 µM | TGI (RXF 393): 6.9 µM | GI50 (HL-60(TB)): 1 µM | TGI (HL-60(TB)): 5.1 µM | CC50 (HL-60(TB)): 43.5 µM | GI50 (A549): 0.2 µM | LC50 (50% cell kill concentration) (A549): 1.8 µM | TGI (A549): 0.5 µM | GI50 (NCI-H522): 1.1 µM | TGI (NCI-H522): 2.4 µM | CC50 (NCI-H522): 5.2 µM | GI50 (PC-3): 1.6 µM | LC50 (concentration killing 50% of cells) (PC-3): 26.6 µM | TGI (PC-3): 5.9 µM | GI50 (HCT-15): 0.5 µM | TGI (HCT-15): 1.8 µM | CC50 (HCT-15): 4.9 µM | GI50 (LOX IMVI): 0.4 µM | LC50 (LOX IMVI): 13.2 µM | TGI (LOX IMVI): 2.4 µM | GI50 (UO-31): 1.3 µM | TGI (UO-31): 2.8 µM | CC50 (UO-31): 5.7 µM | GI50 (MDA-MB-435): 0.2 µM | TGI (MDA-MB-435): 0.3 µM | CC50 (MDA-MB-435): 0.6 µM | MIC (Pseudomonas aeruginosa): >60 µg | GI50 (COLO 205): 0.7 µM | TGI (COLO 205): 2.3 µM | CC50 (COLO 205): 6.1 µM | GI50 (ACHN): 1.1 µM | TGI (ACHN): 2.9 µM | CC50 (ACHN): 7.8 µM | MIC (Amorphotheca resinae): >60 µg | GI50 (SN12C): 0.5 µM | LC50 (SN12C): 5.5 µM | TGI (SN12C): 1.8 µM | GI50 (SNB-75): 0.2 µM | TGI (SNB-75): 0.9 µM | CC50 (SNB-75): 5.3 µM | GI50 (SK-MEL-5): 0.1 µM | TGI (SK-MEL-5): 0.3 µM | CC50 (SK-MEL-5): 0.5 µM | GI50 (MDA-MB-231): 3.3 µM | TGI (MDA-MB-231): 29.6 µM | CC50 (MDA-MB-231): > 100 µM | GI50 (MCF7): 1 µM | TGI (MCF7): 3.3 µM | CC50 (MCF7): > 100 µM | GI50 (SW-620): 0.7 µM | LC50 (concentration killing 50% of cells) (SW-620): 4.9 µM | TGI (SW-620): 2 µM | MIC (Candida albicans): >60 µg | GI50 (MDA-N): 0.2 µM | TGI (MDA-N): 0.3 µM | CC50 (MDA-N): 0.6 µM
